# Measured values published in ChEMBL document CHEMBL5360658, “Discovery of MK-8768, a Potent and Selective mGluR2 Negative Allosteric Modulator” (ACS Med Chem Lett, 2023).
# Key:
# [1] = biological target: T1, Nuclear receptor subfamily 1 group I member 2 (Homo sapiens, UniProt O75469); assay: Agonist activity at PXR (unknown origin)
# T1 sequence (O75469 whole entry): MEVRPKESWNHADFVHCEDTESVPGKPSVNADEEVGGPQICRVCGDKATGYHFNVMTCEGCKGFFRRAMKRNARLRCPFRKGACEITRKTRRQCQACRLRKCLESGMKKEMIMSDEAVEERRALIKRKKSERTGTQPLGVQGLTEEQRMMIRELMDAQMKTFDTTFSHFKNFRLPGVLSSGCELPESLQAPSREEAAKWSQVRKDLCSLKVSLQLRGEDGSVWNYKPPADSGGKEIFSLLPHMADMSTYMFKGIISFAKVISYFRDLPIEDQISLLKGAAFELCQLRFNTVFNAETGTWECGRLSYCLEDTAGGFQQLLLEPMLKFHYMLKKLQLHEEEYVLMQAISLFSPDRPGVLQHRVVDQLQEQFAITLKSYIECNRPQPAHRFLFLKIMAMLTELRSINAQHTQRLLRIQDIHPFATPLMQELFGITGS
# [2] = Apparent permeability in […] LLC-MDR1 cell; assay type: ADME, cell-based; conditions: LLC-PK1
# PXR (NR1I2) = biological target: T2, PXR (NR1I2) (Homo sapiens, UniProt O75469); assay: Agonist activity at PXR (unknown origin) assessed as maximal efficacy at 30 uM
# T2 sequence (O75469 whole entry): T1 sequence (O75469 whole entry)
# [3] = biological target: Voltage-gated inwardly rectifying potassium channel KCNH2 (Homo sapiens, UniProt Q12809); assay: Displacement of [35S]-MK-499 from hERG expressed in HEK293 cells […]; assay type: toxicity, cell-based
# [4] = Solubility of the compound at pH 7; assay type: physicochemical; conditions: buffer, read-out: solubility
# Voltage-gated inwardly rectifying potassium channel KCNH2, sequence (Q12809 whole entry): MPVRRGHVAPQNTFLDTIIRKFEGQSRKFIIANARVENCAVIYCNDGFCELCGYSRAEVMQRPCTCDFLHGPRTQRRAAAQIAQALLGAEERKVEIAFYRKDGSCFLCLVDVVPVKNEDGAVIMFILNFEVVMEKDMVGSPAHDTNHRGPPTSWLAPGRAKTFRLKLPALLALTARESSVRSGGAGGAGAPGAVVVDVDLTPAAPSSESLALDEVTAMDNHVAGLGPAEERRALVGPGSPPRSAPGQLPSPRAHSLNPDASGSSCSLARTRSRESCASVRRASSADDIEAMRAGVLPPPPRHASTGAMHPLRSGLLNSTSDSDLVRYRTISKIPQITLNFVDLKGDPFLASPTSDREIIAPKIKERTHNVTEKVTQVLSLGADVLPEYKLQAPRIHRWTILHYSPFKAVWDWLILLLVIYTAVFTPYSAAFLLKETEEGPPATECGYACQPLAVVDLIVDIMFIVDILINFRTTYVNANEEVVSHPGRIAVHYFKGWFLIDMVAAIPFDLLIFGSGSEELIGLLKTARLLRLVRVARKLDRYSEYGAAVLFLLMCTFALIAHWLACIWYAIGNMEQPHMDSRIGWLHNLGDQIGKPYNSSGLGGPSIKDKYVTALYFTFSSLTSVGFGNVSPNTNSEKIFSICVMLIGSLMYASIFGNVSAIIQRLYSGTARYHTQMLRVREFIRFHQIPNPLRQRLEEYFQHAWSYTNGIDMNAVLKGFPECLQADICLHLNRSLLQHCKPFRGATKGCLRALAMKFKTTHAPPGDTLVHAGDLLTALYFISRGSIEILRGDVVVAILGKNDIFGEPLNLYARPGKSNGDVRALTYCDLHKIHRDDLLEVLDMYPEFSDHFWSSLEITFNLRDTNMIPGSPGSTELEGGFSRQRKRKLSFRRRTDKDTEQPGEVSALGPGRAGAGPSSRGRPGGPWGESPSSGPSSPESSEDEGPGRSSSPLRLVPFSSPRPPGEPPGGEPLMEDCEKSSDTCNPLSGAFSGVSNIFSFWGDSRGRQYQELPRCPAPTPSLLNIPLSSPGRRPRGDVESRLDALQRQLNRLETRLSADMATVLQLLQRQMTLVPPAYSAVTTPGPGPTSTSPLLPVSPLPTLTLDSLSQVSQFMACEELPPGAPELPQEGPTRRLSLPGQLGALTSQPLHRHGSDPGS
Compound,EC50 [1],Papp [2],Emax at 30 µM (PXR (NR1I2)),IC50 [3],solubility [4]
NC(=O)c1cc(-c2ccc(F)cc2)c2ccc(CCc3cncnc3)cc2n1,> 30 µM,31 ×10⁻⁶ cm/s,47%,> 60 µM,< 1 µM
NC(=O)c1cc(-c2ccc(F)cc2)c2ccc(CN3CCOC3=O)cc2n1,9.7 µM,36 ×10⁻⁶ cm/s,95%,14 µM,127 µM
NC(=O)c1cc(N2CCOCC2)c2ccc(CN3C(=O)CCC3=O)cc2n1,,35 ×10⁻⁶ cm/s,,17 µM,157 µM
CN(C)C(=O)C(C)(C)c1ccc2c(-c3ccc(F)cc3)cc(C(N)=O)nc2c1,3.5 µM,38 ×10⁻⁶ cm/s,110%,40 µM,< 2 µM
Cn1ccc(CCc2ccc3c(-c4ccc(F)cc4)cc(C(N)=O)nc3c2)n1,9.2 µM,25 ×10⁻⁶ cm/s,97%,2.9 µM,< 1 µM
Cc1ncc(-c2cc(C(N)=O)nc3cc(CN4C(=O)CCC4=O)ccc23)s1,6 µM,,137%,> 60 µM,64 µM
CCn1cc(-c2cc(C(N)=O)nc3cc(CN4C(=O)CCC4=O)ccc23)cn1,,24 ×10⁻⁶ cm/s,,27 µM,150 µM
Cn1cc(Cc2ccc3c(-c4ccc(F)cc4)cc(C(N)=O)nc3c2)cn1,> 30 µM,31 ×10⁻⁶ cm/s,21%,3.5 µM,4 µM
Cc1cc(NCc2ccc3c(-c4ccc(F)cc4)cc(C(N)=O)nc3c2)no1,> 30 µM,30 ×10⁻⁶ cm/s,49%,3.3 µM,3 µM
Cn1cc(-c2cc(C(N)=O)nc3cc(CN4C(=O)CCC4=O)ccc23)cn1,,30 ×10⁻⁶ cm/s,,,162 µM
Cc1ncc(CCc2ccc3c(-c4cnn(C)c4)cc(C(N)=O)nc3c2)cn1,,30 ×10⁻⁶ cm/s,,> 60 µM,141 µM
Cc1ncc(NCc2ccc3c(-c4ccc(F)cc4)cc(C(N)=O)nc3c2)cn1,> 30 µM,31 ×10⁻⁶ cm/s,1%,6.2 µM,7 µM
CC(C)(C(=O)N1CCOCC1)c1ccc2c(-c3ccc(F)cc3)cc(C(N)=O)nc2c1,,32 ×10⁻⁶ cm/s,,20.6 µM,143 µM
Cc1cnn(-c2cc(C(N)=O)nc3cc(CN4C(=O)CCC4=O)ccc23)c1,> 30 µM,,54%,,99 µM
Cn1cc(Cc2ccc3c(-c4cnn(C)c4)cc(C(N)=O)nc3c2)cn1,,36 ×10⁻⁶ cm/s,,> 60 µM,105 µM
Cc1cnn(Cc2ccc3c(-c4ccc(F)cc4)cc(C(N)=O)nc3c2)c1,16.7 µM,27 ×10⁻⁶ cm/s,53%,1.9 µM,< 2 µM
CC1CCN(c2cc(C(N)=O)nc3cc(CN4C(=O)CCC4=O)ccc23)CC1,,,,,< 2 µM
NC(=O)c1cc(-c2ccc(F)cc2)c2ccc(CN3CCOC(C(F)(F)F)C3)cc2n1 (racemic),,24 ×10⁻⁶ cm/s,,5.5 µM,2 µM
NC(=O)c1cc(-c2ccc(F)cc2)c2ccc(CN3CCNC(C(F)(F)F)C3)cc2n1 (racemic),,27 ×10⁻⁶ cm/s,,11.2 µM,105 µM
CC1CN(Cc2ccc3c(-c4cnn(C)c4)cc(C(N)=O)nc3c2)CCO1 (racemic),> 30 µM,,1%,> 60 µM,175 µM
COC1CC=C(c2cc(C(N)=O)nc3cc(CN4C(=O)CCC4=O)ccc23)CC1 (racemic),,32 ×10⁻⁶ cm/s,,> 60 µM,125 µM
CC1CN(Cc2ccc3c(-c4ccc(F)cc4)cc(C(N)=O)nc3c2)CCO1 (racemic),> 30 µM,,26%,5.5 µM,103 µM
Cn1cc(-c2cc(C(N)=O)nc3cc(CN4CCOC(C(F)(F)F)C4)ccc23)cn1 (racemic),,30 ×10⁻⁶ cm/s,,19 µM,132 µM
